The values below come from ChEMBL document CHEMBL3259604, “Synthesis and anti-BVDV activity of novel δ-sultones in vitro: implications for HCV therapies” (Bioorg Med Chem Lett, 2014).

A short description of series [1]: Cytotoxicity against MDBK cells at 20 uM after 48 hrs by MTT assay. The class given is cell-based, Bos taurus. To be noted: cattle. A general note: Tetrazolium dyes change colour on reduction, which living cells bring about.
Series [2] deals with Bovine viral diarrhea virus 1. Description: Antiviral activity against BVDV AV-69 infected in MDBK cells assessed as cytopathic effect after 3 to 4 days by plaque reduction assay. The class given is functional, organism-based. The settings on record: Bovine viral diarrhea virus isolates and strains, AV-69, MDBK. On the technique in general: Cytopathic effects are the visible damage that an infection or toxin causes in cultured cells.

The nature of series [3]: Cytotoxicity against MDBK cells after 48 hrs by MTT assay. The class given is cell-based, Bos taurus. To be noted: cattle.
Series [4] concerns Bovine viral diarrhea virus 1. Description: Ratio of ribavirin EC50 to compound EC50 for BVDV AV-69. The series is classed as functional.

pEC50: −log10 of the molar value. Some results are limits rather than exact numbers.

By pEC50 is commonly meant the negative decadic logarithm of the EC50, by convention in mol/L. With `CC12COS(=O)(=O)CC1=C(c1ccc(C(F)(F)F)cc1)C(=O)O2` (stereo not drawn), the Activity result in series [1] was “Non-toxic”. For the same compound, the pEC50 in series [2] is under 5.92. Consider `Cc1ccc(C2=C3CS(=O)(=O)OCC3(C)OC2=O)cc1` (stereo not drawn), for which the Activity result in series [1] was “Non-toxic”. Further, the pEC50 in series [2] was under 5.92. The like results for `CC12COS(=O)(=O)CC1=C(c1ccc(Cl)cc1)C(=O)O2` (stereo not drawn) were, in that order, “Non-toxic” and 6.30. As usually defined, the CC50 is the concentration that lowers cell viability or growth by half. A higher CC50 goes with lower toxicity to the cells. Regarding `CC12COS(=O)(=O)CC1=C(c1ccccc1)C(=O)O2` (stereo not drawn), the pEC50 in series [2] was 6.30. This compound had a CC50 at 48 h in series [3] of over 20 µM. `CC12COS(=O)(=O)CC1=C(c1ccccc1Br)C(=O)O2` (stereo not drawn): in series [2], the pEC50 is 6.92. Also, in series [4], the “Ratio EC50” value is recorded as 10. The CC50 at 48 h in series [3] was over 20 µM.

`CC12COS(=O)(=O)CC1=C(c1ccc(Br)cc1)C(=O)O2` (stereo not drawn): in series [1], the Activity entry is given as “Non-toxic”. For the same compound, the pEC50 in series [2] is 6.00. Turning to `COc1ccc(C2=C3CS(=O)(=O)OCC3(C)OC2=O)cc1` (stereo not drawn), in series [2], the pEC50 is under 5.92.

As to `CC12COS(=O)(=O)CC1=C(c1ccc(F)c(F)c1)C(=O)O2` (stereo not drawn), the Activity result in series [1] is reported as “Non-toxic”. Also, in series [2], the pEC50 was under 5.92.

For `CC12COS(=O)(=O)CC1=C(c1ccccc1F)C(=O)O2` (stereo not drawn), in series [2], the pEC50 is 6.30. The compound further registered a CC50 at 48 h in series [3] of over 20 µM. As for `CC12COS(=O)(=O)CC1=C(c1cccc(F)c1)C(=O)O2` (stereo not drawn), in series [2], the pEC50 was 6.00. In series [3], the half-maximal cytotoxic concentration (CC50) at 48 h was over 20 µM. `CC12COS(=O)(=O)CC1=C(c1ccc(F)cc1)C(=O)O2` (stereo not drawn): the pEC50 in series [2] was under 5.92.

On to `NC(=O)c1ncn([C@@H]2O[C@H](CO)[C@@H](O)[C@H]2O)n1` [RIBAVIRIN], for which the pEC50 in series [2] was 5.89. Besides, in series [3], the CC50 at 48 h is over 20 µM.
